Measured values: PubChem BioAssay AID1259407 (Chemical Carcinogenesis Research Information System (CCRIS), 2018)
Calls of active or inactive are those of the source. The rule behind the calls is not given here.

Tested on: CCRIS mutagenicity, Ames/micronucleus/aberration tests
Assay: CCRIS mutagenicity studies
[1] = Test System: AMES SALMONELLA TYPHIMURIUM, Strain/Indicator: TA98, Metabolic Activation: NONE, Method: PREINCUBATION
[2] = Test System: AMES SALMONELLA TYPHIMURIUM, Strain/Indicator: TA100, Metabolic Activation: NONE, Method: PREINCUBATION
[3] = Test System: AMES SALMONELLA TYPHIMURIUM, Strain/Indicator: TA100, Metabolic Activation: NONE, Method: STANDARD PLATE

Compound: Cl/C=C/Cl
- mutagenic call (End Point: IN VITRO CHROMOSOMAL ABERRATIONS, Test System: CHINESE HAMSTER LUNG (CHL), Metabolic Activation: NONE): inactive; negative
- mutagenic call (End Point: IN VITRO CHROMOSOMAL ABERRATIONS, Test System: CHINESE HAMSTER LUNG (CHL), Metabolic Activation: RAT, LIVER, S-9, KC-400): inactive; negative
- mutagenic call (Test System: AMES SALMONELLA TYPHIMURIUM, Strain/Indicator: TA97, Metabolic Activation: NONE, Method: STANDARD PLATE): inactive; negative
- mutagenic call (Test System: AMES SALMONELLA TYPHIMURIUM, Strain/Indicator: TA97, Metabolic Activation: RAT, LIVER, S-9, AROCLOR 1254, Method: STANDARD PLATE): active; positive
- mutagenic call (Test System: AMES SALMONELLA TYPHIMURIUM, Strain/Indicator: TA98, Metabolic Activation: HAMSTER LIVER S-9, AROCLOR 1254 (10%), Method: PREINCUBATION): inactive; negative
- mutagenic call (Test System: AMES SALMONELLA TYPHIMURIUM, Strain/Indicator: TA98, Metabolic Activation: HAMSTER, LIVER, S-9, AROCLOR 1254 (10%), Method: PREINCUBATION): inactive; negative
- mutagenic call [1]: inactive; negative
- mutagenic call (Test System: AMES SALMONELLA TYPHIMURIUM, Strain/Indicator: TA98, Metabolic Activation: NONE, Method: STANDARD PLATE): inactive; negative
- mutagenic call (Test System: AMES SALMONELLA TYPHIMURIUM, Strain/Indicator: TA98, Metabolic Activation: RAT LIVER S-9, AROCLOR 1254 (10%), Method: PREINCUBATION): inactive; negative
- mutagenic call (Test System: AMES SALMONELLA TYPHIMURIUM, Strain/Indicator: TA98, Metabolic Activation: RAT, LIVER, S-9, AROCLOR 1254 (10%), Method: PREINCUBATION): inactive; negative
- mutagenic call (Test System: AMES SALMONELLA TYPHIMURIUM, Strain/Indicator: TA98, Metabolic Activation: RAT, LIVER, S-9, AROCLOR 1254, Method: STANDARD PLATE): active; positive
- mutagenic call (Test System: AMES SALMONELLA TYPHIMURIUM, Strain/Indicator: TA100, Metabolic Activation: HAMSTER LIVER S-9, AROCLOR 1254 (10%), Method: PREINCUBATION): inactive; negative
- mutagenic call (Test System: AMES SALMONELLA TYPHIMURIUM, Strain/Indicator: TA100, Metabolic Activation: HAMSTER, LIVER, S-9, AROCLOR 1254 (10%), Method: PREINCUBATION): inactive; negative
- mutagenic call [2]: inactive; negative
- mutagenic call [3]: active; positive
- mutagenic call (Test System: AMES SALMONELLA TYPHIMURIUM, Strain/Indicator: TA100, Metabolic Activation: RAT LIVER S-9, AROCLOR 1254 (10%), Method: PREINCUBATION): inactive; negative
- mutagenic call (Test System: AMES SALMONELLA TYPHIMURIUM, Strain/Indicator: TA100, Metabolic Activation: RAT, LIVER, S-9, AROCLOR 1254 (10%), Method: PREINCUBATION): inactive; negative
- mutagenic call (Test System: AMES SALMONELLA TYPHIMURIUM, Strain/Indicator: TA100, Metabolic Activation: RAT, LIVER, S-9, AROCLOR 1254, Method: STANDARD PLATE): active; positive
- mutagenic call (Test System: AMES SALMONELLA TYPHIMURIUM, Strain/Indicator: TA104, Metabolic Activation: NONE, Method: STANDARD PLATE): inactive; negative
- mutagenic call (Test System: AMES SALMONELLA TYPHIMURIUM, Strain/Indicator: TA104, Metabolic Activation: RAT, LIVER, S-9, AROCLOR 1254, Method: STANDARD PLATE): inactive; negative
- mutagenic call (Test System: AMES SALMONELLA TYPHIMURIUM, Strain/Indicator: TA1535, Metabolic Activation: HAMSTER LIVER S-9, AROCLOR 1254 (10%), Method: PREINCUBATION): inactive; negative
- mutagenic call (Test System: AMES SALMONELLA TYPHIMURIUM, Strain/Indicator: TA1535, Metabolic Activation: HAMSTER, LIVER, S-9, AROCLOR 1254 (10%), Method: PREINCUBATION): inactive; negative
- mutagenic call (Test System: AMES SALMONELLA TYPHIMURIUM, Strain/Indicator: TA1535, Metabolic Activation: NONE, Method: PREINCUBATION): inactive; negative
- mutagenic call (Test System: AMES SALMONELLA TYPHIMURIUM, Strain/Indicator: TA1535, Metabolic Activation: RAT LIVER S-9, AROCLOR 1254 (10%), Method: PREINCUBATION): inactive; negative
- mutagenic call (Test System: AMES SALMONELLA TYPHIMURIUM, Strain/Indicator: TA1535, Metabolic Activation: RAT, LIVER, S-9, AROCLOR 1254 (10%), Method: PREINCUBATION): inactive; negative
- mutagenic call (Test System: AMES SALMONELLA TYPHIMURIUM, Strain/Indicator: TA1537, Metabolic Activation: HAMSTER LIVER S-9, AROCLOR 1254 (10%), Method: PREINCUBATION): inactive; negative
- mutagenic call (Test System: AMES SALMONELLA TYPHIMURIUM, Strain/Indicator: TA1537, Metabolic Activation: HAMSTER, LIVER, S-9, AROCLOR 1254 (10%), Method: PREINCUBATION): inactive; negative
- mutagenic call (Test System: AMES SALMONELLA TYPHIMURIUM, Strain/Indicator: TA1537, Metabolic Activation: NONE, Method: PREINCUBATION): inactive; negative
- mutagenic call (Test System: AMES SALMONELLA TYPHIMURIUM, Strain/Indicator: TA1537, Metabolic Activation: RAT LIVER S-9, AROCLOR 1254 (10%), Method: PREINCUBATION): inactive; negative
- mutagenic call (Test System: AMES SALMONELLA TYPHIMURIUM, Strain/Indicator: TA1537, Metabolic Activation: RAT, LIVER, S-9, AROCLOR 1254 (10%), Method: PREINCUBATION): inactive; negative

Compound: OCc1ccc(C(F)(F)F)cc1
- mutagenic call [3]: inactive; negative

Compound: Nc1cc([N+](=O)[O-])ccc1CO
- mutagenic call [1]: active; positive
- mutagenic call (Test System: AMES SALMONELLA TYPHIMURIUM, Strain/Indicator: TA98, Metabolic Activation: RAT, LIVER, S-9, PHENOBARBITAL AND 5,6-BENZOFLAVONE, Method: PREINCUBATION): active; positive
- mutagenic call [2]: active; positive
- mutagenic call (Test System: AMES SALMONELLA TYPHIMURIUM, Strain/Indicator: TA100, Metabolic Activation: RAT, LIVER, S-9, PHENOBARBITAL AND 5,6-BENZOFLAVONE, Method: PREINCUBATION): active; positive
